The text below walks through data of patent US20180353398A1, “HAIR CARE REGIMEN USING NA AEROSOL FOAM CONCENTRATED CONDITIONER” (The Procter & Gamble Company, priority 2015, published 2018).

Structures can show the parent of a compound that is named as a salt.

The data set is described as follows: Kinematic viscosity of shampoo base formulation with viscosity reducing agent (calibrated viscometers). The class given is physicochemical. The settings on record: lowest of 2-8% agent in base formulation, 40° C. From the text: Now referring to Tables 11 and 12, the base formulations were made by mixing 1.6% perfume, 24% linear sodium undecyl sulfate (CAS# 1072-24-8) active, 6% lauramidopropyl betaine (CAS# 4292-10-8) active and 60.4% deionized water which leaves 8% unfilled for the addition of a viscosity reducing agent (the balance being filled in by distilled water). For all compositions, the surfactant, water and additives including viscosity reducing agents were expected to be in a single phase.
The agents from Tables 11 and 12 were added to the base formulation at a percentage of 2%, 4%, 6%, and 8% into the above surfactant solution. The subsequent formulations were vortexed and put into oven at 60° C. overnight to form homogeneous solution. The viscosities of the formulations were measured with calibrated viscometers (Size 200/350/450) from Cannon Instrument Company (2139 High Tech Road, State College, Pa., USA, 16803).
After the equilibration, the formulations were drawn to reach the starting mark with a rubber suction bulb and the flow time between the starting mark and end mark was recorded for calculation. Each formulation was measured three times to calculate average and standard deviation. Between samples, viscometer was cleaned with water and acetone to rinse off residual.
Viscosity values in Table 11 and Table 12 were calculated based on the equation:
Viscosity (mm^2/s. (cSt))=Time (s)*Constant (mm^2/s^2. (cSt/s))
The time in the above equation is the flow time recorded in the experiment and the constant numbers for each calibrated viscometer were obtained from the manuals.
With `CCC(=O)O[C@@H]1C[C@H]2CC[C@]1(C)C2(C)C` (racemic) [Iso Bornyl Propionate], the “Lowest viscosity achieved (cSt)” value came to 463 cSt.
Under `CCCCCCCC(OC)OC` [1,1-Dimethoxyoctane] stands 308 cSt; under `CC(C)CC=C(C=O)C(C)C` [2-Isopropyl-5-methyl-2-hexenal], 332 cSt; under `CC(=O)OCCC(C)CCCC(C)C` (stereo not shown) [3,7-Dimethyloctyl Acetate], 446 cSt.
In the case of `CCC(CC(C)CC)=NO` (stereo not shown) [5-Methyl-3-Heptanone Oxime], the “Lowest viscosity achieved (cSt)” value is 246 cSt.
On to `CCCCOC(=O)c1ccccc1O` [Butyl Salicylate], for which the “Lowest viscosity achieved (cSt)” value is reported as 368 cSt.
In the case of `CC12CCC(CC1=O)C2(C)C` (stereo not shown) [Camphor Gum], the “Lowest viscosity achieved (cSt)” value was 127 cSt.
Take `CC(=O)OCCC(C)CCC=C(C)C` (stereo not shown) [Citronellyl Acetate]: the “Lowest viscosity achieved (cSt)” value was determined as 363 cSt.
On to `CCC(=O)OC1CC2CC1C1CC=CC21` (stereo not shown) [Cyclaprop], for which the “Lowest viscosity achieved (cSt)” value amounted to 404 cSt.
In the case of `CCCCCCC1C(=O)CCC1C(=O)OC` (stereo not shown) [Dihyro Iso Jasmonate], the “Lowest viscosity achieved (cSt)” value worked out at 119 cSt.
For the compound `C=C(C)[C@H]1CC=C(C)CC1` [Dipentene], the “Lowest viscosity achieved (cSt)” value stood at 35 cSt.
For `CCO` [Ethanol], the “Lowest viscosity achieved (cSt)” value came to 29 cSt.
Turning to `CC12CCC(CC1)C(C)(C)O2` [Eucalyptol], the “Lowest viscosity achieved (cSt)” value is 203 cSt.
Regarding `CC(C)=CCC/C(C)=C/COC(=O)Cc1ccccc1` [Geranyl Phenyl Acetate], the “Lowest viscosity achieved (cSt)” value worked out at 34 cSt.
With `CCCCCCCCCCCCCCCC` [Hexadecane] the figure was 18 cSt; with `CC(CC=O)CCCC(C)(C)O` (stereo not shown) [Hydroxycitronellal], 34 cSt.
For `CC(C)COC(=O)c1ccccc1O` [Iso Butyl Salicylate], the “Lowest viscosity achieved (cSt)” value is recorded as 409 cSt.
`CCCCCCCCCCCCCC(=O)OC(C)C` [Iso Propyl Myristate]: the “Lowest viscosity achieved (cSt)” value is listed as 30 cSt.
For the compound `CC(C)CCOC(=O)c1ccccc1O` [Isoamyl Salicylate], the “Lowest viscosity achieved (cSt)” value came out at 193 cSt.
For the compound `CCCCCC(=O)OCC(C)C` [Isobutyl Hexanoate], the “Lowest viscosity achieved (cSt)” value is reported as 109 cSt.
On to `C=C(C)[C@H]1CC=C(C)CC1` [Limonene], for which the “Lowest viscosity achieved (cSt)” value amounted to 86 cSt.
For `C=CC(C)(CCC=C(C)C)OC(=O)C(C)C` (stereo not shown) [Linalyl Iso Butyrate], the “Lowest viscosity achieved (cSt)” value came out at 38 cSt.
With `COC(C)(C)C1CC=C(C)CC1` (stereo not shown) [Orange Flower Ether], the “Lowest viscosity achieved (cSt)” value came out at 419 cSt.
`CC(=O)CCc1ccc(O)cc1` [Raspberry Ketone]: the “Lowest viscosity achieved (cSt)” value was determined as 33 cSt.
As to `CCOC(=O)CC(O)(CC(=O)OCC)C(=O)OCC` [Triethyl Citrate], the “Lowest viscosity achieved (cSt)” value was found to be 41 cSt.
In the case of `CCCCCC1(C)CCC(C)(C)C1=O` (stereo not shown) [Veloutone], the “Lowest viscosity achieved (cSt)” value was 47 cSt.
With `CC1=CC=C(C(C)C)CC1` [alpha-Terpinene] the figure was 42 cSt.
With `CC1=CCC(C(C)C)=CC1` [gamma-Terpinene] the figure was 32 cSt.
